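48-hour exposure; five concentrations; linearly interpolated endpoints. TGI is the concentration that stops growth completely.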

Among the test systems are UACC-62 melanoma; SF-539 CNS; 786-0 renal; OVCAR-3 ovarian; MOLT-4 leukemia; SF-295 CNS; HL-60(TB) leukemia; SK-MEL-28 melanoma; SK-MEL-2 melanoma; MCF7 breast.
What all share (assay): growth of human tumour cells (NCI), 48 h

Regarding `Nn1c(Cc2ccc(Cl)cc2)n[nH]c1=O`, the TGI in the assay on UACC-62 melanoma, in the assay on SF-539 CNS, in the assay on 786-0 renal, in the assay on OVCAR-3 ovarian, in the assay with MOLT-4 leukemia and in the assay on SF-295 CNS was over 100 µM throughout. Moreover, the TGI in the assay with HL-60(TB) leukemia, with SK-MEL-28 melanoma and in the assay on SK-MEL-2 melanoma was over 100 µM throughout.
On to `O=C1C=Cc2c(Cl)sc(Cl)c21`, for which the TGI in the assay with UACC-62 melanoma worked out at 8.64 µM; with 786-0 renal it was 2.44 µM; in the assay with MCF7 breast it was 3.9 µM; with SF-295 CNS, 27.1 µM; in the assay with SK-MEL-28 melanoma, 3.97 µM; in the assay with SK-MEL-2 melanoma, 5.32 µM.
Consider `N#CCCNCCN(CCN(C(=O)Nc1ccccc1)c1ccccc1)C(=O)Nc1ccccc1`, for which the TGI in the assay with UACC-62 melanoma, with 786-0 renal, in the assay on MOLT-4 leukemia, with MCF7 breast, in the assay on SF-295 CNS and with HL-60(TB) leukemia was over 100 µM each time. The TGI in the assay with SK-MEL-28 melanoma is 67.3 µM; in the assay on SK-MEL-2 melanoma, over 100 µM.
Turning to `COc1ccc2c(c1)OCC1(O)Cc3ccccc3OC21` (stereo unspecified), the TGI with UACC-62 melanoma, in the assay with SF-539 CNS, with 786-0 renal, in the assay on OVCAR-3 ovarian, in the assay with MOLT-4 leukemia and in the assay on MCF7 breast was over 100 µM in each case. Also, the TGI in the assay on SF-295 CNS and in the assay with SK-MEL-2 melanoma was over 100 µM throughout.
On to `COC(=O)C1=C(C)N2CCCOC2(C)C(C(=O)OC)C1c1cccc(Cl)c1` (stereo unspecified), for which the TGI in the assay with UACC-62 melanoma worked out at 36.5 µM; with SF-539 CNS, 93.8 µM; in the assay with OVCAR-3 ovarian, 70.8 µM; in the assay on MOLT-4 leukemia it was 45.1 µM; in the assay on SF-295 CNS, 88.9 µM; in the assay with HL-60(TB) leukemia it was 58.4 µM. The TGI in the assay on SK-MEL-28 melanoma was over 100 µM; with SK-MEL-2 melanoma, 36.6 µM.
As to `COc1cc2c(cc1OC)C1CN3C(=O)CCC3C(O)C1c1cc(OC)c(OC)cc1-2` (stereo unspecified), the TGI in the assay on UACC-62 melanoma, with 786-0 renal, in the assay on MOLT-4 leukemia, in the assay on MCF7 breast, in the assay with SF-295 CNS and in the assay on HL-60(TB) leukemia was over 100 µM in each case. In addition, the TGI in the assay on SK-MEL-28 melanoma and in the assay on SK-MEL-2 melanoma was over 100 µM throughout.
`C[C@]12CC[C@H]3[C@@H](CCC4=CC(=O)C=C[C@@]43O)[C@@H]1CCC2=O`: the TGI in the assay with UACC-62 melanoma, in the assay on SF-539 CNS, with 786-0 renal, in the assay with OVCAR-3 ovarian, in the assay on MOLT-4 leukemia and in the assay with MCF7 breast was over 100 µM throughout. For the same compound, the TGI in the assay with SF-295 CNS, with SK-MEL-28 melanoma and in the assay with SK-MEL-2 melanoma was over 100 µM in each case.
Consider `CC(C)(C)C#C[P+](c1ccccc1)(c1ccccc1)c1ccccc1`, for which the TGI stood at 0.979 µM in the assay on UACC-62 melanoma; 1.39 µM in the assay on SF-539 CNS; 1.51 µM in the assay with 786-0 renal; 1.32 µM in the assay with OVCAR-3 ovarian; 1.57 µM in the assay on MOLT-4 leukemia; 1.49 µM in the assay on SF-295 CNS. The TGI with HL-60(TB) leukemia is 0.0865 µM; with SK-MEL-28 melanoma, 1.46 µM; in the assay on SK-MEL-2 melanoma, 1.45 µM.
With `CC1=NN(c2cccc(Cl)c2)C2(C1)C(Cl)C(=O)N2c1nc2ccccc2s1` (stereo unspecified), the TGI is over 100 µM with UACC-62 melanoma; 50.6 µM with 786-0 renal; 66.5 µM in the assay on OVCAR-3 ovarian; 38.6 µM with MOLT-4 leukemia; over 100 µM with MCF7 breast; 98.1 µM in the assay on SF-295 CNS. The TGI came to 53.4 µM in the assay on HL-60(TB) leukemia and 38.7 µM in the assay with SK-MEL-2 melanoma.
As to `CCCCC/C=C1/CC(CO)(COC(=O)CC(C(C)C)C(C)C)OC1=O` (stereo unspecified), the TGI in the assay on UACC-62 melanoma was 29.6 µM; with 786-0 renal, 22.3 µM; in the assay on OVCAR-3 ovarian, 32.7 µM; in the assay with MOLT-4 leukemia, 26.2 µM; in the assay on MCF7 breast, 31.8 µM; with SF-295 CNS it was 19.5 µM. Further, the TGI is 26.7 µM in the assay on SK-MEL-28 melanoma and 42.9 µM with SK-MEL-2 melanoma.
Consider `CCOC(=O)C(=[N+]=[N-])C(=O)C[N+]12CCN(CC1)CC2`, for which the TGI with UACC-62 melanoma, in the assay on 786-0 renal, with OVCAR-3 ovarian, with MOLT-4 leukemia, in the assay with SF-295 CNS and with SK-MEL-28 melanoma was over 100 µM each time. In the assay with SK-MEL-2 melanoma, this compound showed a TGI of over 100 µM.
On to `O=C1COC(c2ccccc2O)=NN1CCCN1CCCC1`, for which the TGI in the assay on UACC-62 melanoma, with SF-539 CNS, in the assay with 786-0 renal, in the assay on OVCAR-3 ovarian, with MOLT-4 leukemia and in the assay on MCF7 breast was over 100 µM each time. For the same compound, the TGI with SF-295 CNS, with SK-MEL-28 melanoma and in the assay on SK-MEL-2 melanoma was over 100 µM throughout.
Regarding `O=S(=O)(c1cc(Cl)ccc1Cl)N1CCN(S(=O)(=O)c2cc(Cl)ccc2Cl)CC1`, the TGI in the assay with UACC-62 melanoma is 2.48 µM; in the assay on SF-539 CNS it was over 100 µM; in the assay with 786-0 renal, over 100 µM; with OVCAR-3 ovarian it was over 100 µM; in the assay on MOLT-4 leukemia it was over 100 µM; with MCF7 breast, over 100 µM. Further, the TGI in the assay on SF-295 CNS, with SK-MEL-28 melanoma and in the assay with SK-MEL-2 melanoma was over 100 µM each time.
As to `COc1cc(Oc2nc3ccccc3nc2C(=O)O)cc(OC)c1OC`, the TGI in the assay on UACC-62 melanoma, in the assay with 786-0 renal, with OVCAR-3 ovarian, in the assay with MOLT-4 leukemia, in the assay with SF-295 CNS and with HL-60(TB) leukemia was over 100 µM throughout. The TGI in the assay on SK-MEL-28 melanoma and in the assay on SK-MEL-2 melanoma was over 100 µM each time.
For the compound `Cc1cc(O)c(C(C)C)cc1NC(=O)Nc1cccc2ccccc12`, the TGI with UACC-62 melanoma was 25.9 µM; in the assay with 786-0 renal, 34.6 µM; in the assay on OVCAR-3 ovarian, 40.2 µM; in the assay with MOLT-4 leukemia it was over 100 µM; in the assay with SF-295 CNS, 28.2 µM; in the assay with HL-60(TB) leukemia, over 100 µM. Moreover, the TGI with SK-MEL-28 melanoma worked out at 55.8 µM; in the assay with SK-MEL-2 melanoma it was 30.4 µM.
On to `COc1cc(C2c3cc4c(cc3C(O)C3CCC(=O)N23)OCO4)cc(OC)c1OC` (stereo unspecified), for which the TGI with UACC-62 melanoma is over 100 µM; in the assay on 786-0 renal, over 100 µM; with OVCAR-3 ovarian, over 100 µM; in the assay on MOLT-4 leukemia, over 100 µM; with MCF7 breast, 81 µM; in the assay on SF-295 CNS it was 32.6 µM. In addition, the figures for the TGI in the assay on HL-60(TB) leukemia, with SK-MEL-28 melanoma and in the assay with SK-MEL-2 melanoma were 55.1 µM, over 100 µM and over 100 µM, respectively.
